In US20200038418A1, “METHODS OF TREATING AUTISM SPECTRUM DISORDER USING AMINOSTEROL COMPOSITIONS” (Enterin, Inc., priority 2018, published 2020):

Test system: patients with PD and constipation
Assay: Stage 2 CNS symptoms (UPDRS, MMSE, PDHQ, BDI-II)
Type: in vivo, human
Conditions: for UPDRS Part 1 (NMS) (Mean, SD) / BDI-II (Mean, SD) / PDHQ (Mean, SD): n = 34; for hallucinations and delusions improved or disappeared: during treatment, patients with hallucinations or delusions at baseline
Text: (9) Unified Parkinson's Disease Rating Scale (UPDRS), which consists of 42 items in four subscales (Part I=Non-Motor Aspects of Experiences of Daily Living (nM-EDL) (1.1 cognitive impairment, 1.2 hallucinations and psychosis, 1.3 depressed mood, Part II=Motor Aspects of Experiences of Daily Living (M-EDL), Part III=Motor Examination, and Part IV=Motor Complications;
Exploratory end-points, in addition to constipation, included for example, (i) depression assessed using the Beck Depression Inventory (BDI-II) (Steer et al. 2000) and Unified Parkinson's Disease Rating Scale (UPDRS); (ii) cognition assessed using the Mini Mental State Examination (MMSE) (Palsteia et al., 2018), Unified Parkinson's Disease Rating Scale (UPDRS), and Trail Making Test (TMT); (iii) sleep and REM-behavior disorder (RBD) using a daily sleep diary, I-Button Temperature Assessment, a REM sleep behavior disorder (RBD) questionnaire (RBDQ) (Stiasny-Kolster et al. 2007), and the UPDRS; (iv) hallucinations assessed using the PD hallucinations questionnaire (PDHQ) (Papapetropoulos et al. 2008), the UPDRS, and direct questioning; (v) fatigue using the Parkinson's Disease Fatigue Scale (PFS-16) and the UPDRS; (vi) motor functions using the UPDRS; and (vii) non-motor functions using the UPDRS.
Assessments were made at baseline and at the end of the fixed dose and washout periods. Circadian system status was evaluated by continuously monitoring wrist skin temperature (Thermochron iButton DS1921H; Maxim, Dallas) following published procedures (Sarabia et al. 2008).
An exploratory analysis was done with respect to the sleep data, the body temperature data, mood, fatigue, hallucinations, cognition and other motor and non-motor symptoms of PD. Continuous measurements within a subject were compared with a paired t-test and continuous measurements between subject groups were compared with a two-group t-test. Categorical data were compared with a chi-squared test or a Fisher's exact test if the expected cell counts are too small for a chi-squared test.

[1] = Stage 2, fixed dose (during treatment)
[2] = Stage 2, fixed dose (during treatment), listed as Squalamine (ENT-01)
[3] = Stage 2, wash-out, listed as Squalamine (ENT-01)

CC(C)[C@@H](CC[C@@H](C)[C@H]1CC[C@H]2[C@@H]3[C@H](O)C[C@H]4C[C@@H](NCCCNCCCCN)CC[C@]4(C)[C@H]3CC[C@]12C)OS(=O)(=O)O (single isomer, unassigned) [squalamine (ENT-01), squalamine]
time hallucinations and delusions did not return following discontinuation (1 patient): 4 weeks
UPDRS Part 1 (NMS) (Mean, SD) (Stage 2, end of fixed dose): 10.6 (6.18))
UPDRS Part 1 (NMS) (Mean, SD) (Stage 2, end of wash-out): 9.5 (5.27)
UPDRS Part 1 (NMS) (Mean, SD) (Stage 2, end of wash-out, listed as aminosterol): 9.5
BDI-II (Mean, SD) [1]: 9.9
PDHQ (Mean, SD) [1]: 1.8
BDI-II (Mean, SD) [2]: 9.9 (6.45)
PDHQ (Mean, SD) [2]: 1.8 (3.34)
BDI-II (Mean, SD) (Stage 2, fixed dose (during treatment), listed as aminosterol): 9.9
BDI-II (Mean, SD) (Stage 2, wash-out): 8.7
PDHQ (Mean, SD) (Stage 2, wash-out): 0.9
BDI-II (Mean, SD) [3]: 8.7 (5.19)
PDHQ (Mean, SD) [3]: 0.9 (2.33)
BDI-II (Mean, SD) (Stage 2, wash-out, listed as aminosterol): 8.7
time hallucinations and delusions did not return following discontinuation (another patient): 2 weeks
hallucinations and delusions improved or disappeared: 5 of 6
hallucinations and delusions improved or disappeared (listed as ENT-01): five
